What all share (type): in vivo
The test system of one test is Myzus persicae. Nature of the test: Insecticidal test, Myzus persicae (aphids), contact. The conditions noted are these: 72 h, Chinese Cabbage leaf, 3 days, read-out: grading of mortality, MP. The method, boiled down:
(§1)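 Product applied at 500, 250 or 100 ppm as acetone solution diluted in water with 0.01% Lissapol NX wetting agent, onto pests and/or their host plant or food medium. Mortality or knockdown scored 1–3 days after treatment and graded A (80–100%; 70–100% for S. exigua), B (50–79%; 50–69% for S. exigua) or C (<50%).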

For a further test, the system named is Blattella germanica. Nature of the test: Insecticidal test, Blattella germanica (cockroach nymphs), residual. As to conditions: 72 h, plastic pot, 3 days, read-out: grading of mortality, BG. The essentials: as §1
Test [1] deals with Musca domestica. Nature of the test: Insecticidal test, Musca domestica (houseflies - adults), contact. The conditions noted are these: 24 h, cotton wool/sugar, 1 day, read-out: grading of mortality, MD. The essentials:
as §1

The next test relates to Diabrotica balteata. Nature of the test: Insecticidal test, Diabrotica balteata (rootworm larvae), residual. As to conditions: 72 h, filter paper/maize seed, 3 days, read-out: grading of mortality, DB. The essentials: as §1
For the next test, the system named is Spodoptera exigua. Nature of the test: Insecticidal test, Spodoptera exigua (lesser armyworm), residual. As to conditions: 72 h, cotton leaf, 3 days, read-out: grading of mortality, SE. The procedure:
The activity of the Product was determined using a variety of insect and acarine pests. The Product was used in the form of liquid preparations containing 500, 250 or 100 parts per million (ppm) by weight of the Product. The preparations were made by dissolving the Product in acetone and diluting the solutions with water containing 0.01% by weight of a wetting agent sold under the trade name "LISSAPOL" NX until the liquid preparations contained the required concentratio of the Product. "Lissapol" is a Registered Trade Mark.
The test procedure adopted with regard to each pest was basically the same and comprised supporting a number of the pests on a medium which was usually a host plant or a foodstuff on which the pests feed, and treating either or both the pests and the medium with the preparations. The mortality of the pests was then assessed at periods usually varying from one to three days after the treatment.
The results of the tests are given in Table IV for each of the Products, at the rate in parts per million given in the second column as a grading of mortality designated as A, B or C wherein A indicates 80-100% mortality or knockdown (70-100% in the case of Spodoptera exigua), B indicates 50-79% mortality or knockdown (50-69% in the case of Spodoptera exigua) and C indicates less than 50% mortality or knockdown.
In Table IV the pest organism used is designated by a letter code and the pest species, the support medium or food, and the type and duration of test is given in Table III.

The test system of the next test is Heliothis virescens. Nature of the test: whole plant or invertebrate. As to conditions: in Gossypium hirsutum, 72 h, read-out: grading of mortality, HV. The method, boiled down:
as §1

The next test relates to Tetranychus urticae. Nature of the test: Insecticidal/acaricidal test, Tetranychus urticae (spider mites - adult), contact. The conditions noted are these: 72 h, French bean leaf, 3 days, read-out: grading of mortality, TU. The essentials: as §1
Another test concerns Nilaparvata lugens. Nature of the test: Insecticidal test, Nilaparvata lugens (brown planthopper), contact. As to conditions: 72 h, Cabbage leaf, 3 days, read-out: grading of mortality, NL. The essentials: as §1
Test [2] relates to Musca domestica. Nature of the test: Knockdown test, Musca domestica (houseflies - adults). The conditions noted are these: cotton wool/sugar, 4 hours, read-out: grading of knockdown, MD/KD. The essentials: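 Adult houseflies were exposed to the compound as aqueous acetone preparations with 0.01% Lissapol NX wetting agent, at 500, 250 or 100 ppm. Knockdown was graded A (80–100%), B (50–79%) or C (<50%).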

Among the data in patent US5225607A, “Insecticidal ethers” (Imperial Chemical Industries PLC, priority 1985, dated 1993) are mortality and pest or weed control values, retold here.

Broadly, the mortality is the share of the test organisms that died. As to `CCOc1ccc(C(COCc2cccc(Oc3ccc(F)cc3F)c2)C(F)(F)F)cc1` (stereo not drawn) [Compound 10, 1,1,1-Trifluoro-2-(4-ethoxyphenyl)-3-(3-(2,4-difluorophenoxy)benzyloxy)propane], the mortality at 250 ppm in the test on Myzus persicae was in the range of 50 to 79%; in the test on Blattella germanica, 80 to 100%; in the test with Musca domestica [1], 80 to 100%; in the test on Diabrotica balteata, 80 to 100%; with Spodoptera exigua it was 70 to 100%; in the test on Heliothis virescens, 80 to 100%. Further, the mortality at 250 ppm is less than 50% in the test with Tetranychus urticae and 80 to 100% in the test on Nilaparvata lugens. Besides, the pest or weed control at 250 ppm with Musca domestica [2] fell in the range of 80 to 100%.

Turning to `CCOc1ccc(C(COCc2cccc(Nc3ccc(F)cc3)c2)C(F)(F)F)cc1` (stereo not drawn) [Compound 11, 1,1,1-Trifluoro-2-(4-ethoxyphenyl)-3-(3-(4-fluorophenylamino)benzyloxy)propane], the mortality at 500 ppm in the test with Myzus persicae is less than 50%; with Blattella germanica, 50 to 79%; in the test on Musca domestica [1] it was 50 to 79%; with Diabrotica balteata, less than 50%; with Spodoptera exigua it was 50 to 69%; with Heliothis virescens it was less than 50%. In addition, the mortality at 500 ppm in the test on Tetranychus urticae was less than 50%; in the test with Nilaparvata lugens it was 80 to 100%. In addition, in the test on Musca domestica [2], the pest or weed control at 500 ppm was 80 to 100%.

On to `CCOc1ccc(C(COCc2cccc(Cc3ccccc3)c2)C(F)(F)F)cc1` (stereo not drawn) [Compound 12, 1,1,1-Trifluoro-2-(4-ethoxyphenyl)-3-(3-benzylbenzyloxy)propane], for which the mortality at 500 ppm in the test on Myzus persicae fell in the range of 80 to 100%; with Blattella germanica it was 80 to 100%; in the test on Musca domestica [1], 80 to 100%; in the test on Diabrotica balteata, 80 to 100%; with Spodoptera exigua, 70 to 100%; in the test with Heliothis virescens, 80 to 100%. The mortality at 500 ppm was less than 50% with Tetranychus urticae and 80 to 100% in the test with Nilaparvata lugens. Further, in the test with Musca domestica [2], the pest or weed control at 500 ppm was 80 to 100%.

Regarding `CCOc1ccc(C(COCc2cccc(Oc3ccc(Cl)cc3)c2)C(F)(F)F)cc1F` (stereo not drawn) [Compound 13, 1,1,1-Trifluoro-2-(3-fluoro-4-ethoxyphenyl)-3-(3-(4-chlorophenoxy)benzyloxy)propane], the mortality at 100 ppm in the test on Myzus persicae fell in the range of 80 to 100%; in the test on Blattella germanica, 80 to 100%; in the test on Musca domestica [1], 80 to 100%; in the test with Diabrotica balteata, 50 to 79%; with Spodoptera exigua, 70 to 100%; with Heliothis virescens it was 80 to 100%. Besides, the mortality at 100 ppm in the test on Tetranychus urticae is less than 50%; in the test on Nilaparvata lugens, 80 to 100%. The pest or weed control at 100 ppm with Musca domestica [2] lay in the range of 80 to 100%.

With `CCOc1ccc(C(COCc2cccc(Oc3ccccc3)c2)C(F)(F)F)cc1F` (stereo not drawn) [Compound 14, 1,1,1-Trifluoro-2-(3-fluoro-4-ethoxyphenyl)-3-(3-phenoxybenzyloxy)propane], the mortality at 100 ppm in the test with Myzus persicae fell in the range of 80 to 100%; with Blattella germanica, 80 to 100%; with Musca domestica [1] it was 80 to 100%; in the test with Diabrotica balteata, 80 to 100%; in the test on Spodoptera exigua, 70 to 100%; in the test on Heliothis virescens it was 80 to 100%. For the same molecule, the mortality at 100 ppm is less than 50% with Tetranychus urticae and 80 to 100% in the test on Nilaparvata lugens. For the same molecule, the pest or weed control at 100 ppm in the test on Musca domestica [2] was 80 to 100%.

Turning to `Fc1ccc(C(COCc2ccc(F)c(Oc3ccccc3)c2)C(F)(F)F)cc1` (stereo not drawn) [Compound 18, 1,1,1-Trifluoro-2-(4-fluorophenyl)-3-(3-phenoxy-4-fluorobenzyloxy)propane], the mortality at 250 ppm lay in the range of 80 to 100% in the test on Myzus persicae; 80 to 100% in the test with Blattella germanica; 80 to 100% in the test on Musca domestica [1]; 80 to 100% with Diabrotica balteata; 70 to 100% in the test on Spodoptera exigua; 80 to 100% in the test on Heliothis virescens. Besides, the mortality at 250 ppm with Tetranychus urticae and in the test on Nilaparvata lugens was 80 to 100% each time. Moreover, the pest or weed control at 250 ppm in the test with Musca domestica [2] lay in the range of 80 to 100%.

Take `CC(C)(C)c1ccc(C(COCc2ccc(F)c(Oc3ccccc3)c2)C(F)(F)F)cc1` (stereo not drawn) [Compound 21, 1,1,1-Trifluoro-2-(4-t-butylphenyl)-3-(3-phenoxy-4-fluorobenzyloxy)propane]: the mortality at 500 ppm in the test on Myzus persicae lay in the range of 80 to 100%; in the test on Blattella germanica it was 50 to 79%; in the test on Musca domestica [1] it was 80 to 100%; in the test on Diabrotica balteata, 80 to 100%; with Spodoptera exigua, 70 to 100%; with Heliothis virescens it was 80 to 100%. Besides, the values for the mortality at 500 ppm with Tetranychus urticae and in the test on Nilaparvata lugens were 80 to 100% and less than 50%, respectively. Besides, in the test on Musca domestica [2], the pest or weed control at 500 ppm lay within 80 to 100%.

`COCc1ccc(C(COCc2cccc(Oc3ccc(Cl)cc3)c2)C(F)(F)F)cc1` (stereo not drawn) [Compound 23, 1,1,1-Trifluoro-2-(4-methoxymethylphenyl)-3-(3-(4-chlorophenoxy)benzyloxy)propane]: the mortality at 500 ppm is 50 to 79% in the test with Myzus persicae; less than 50% with Blattella germanica; 50 to 79% in the test with Musca domestica [1]; 80 to 100% in the test on Diabrotica balteata; 70 to 100% in the test on Spodoptera exigua; less than 50% with Heliothis virescens. Further, the mortality at 500 ppm is less than 50% with Tetranychus urticae and 80 to 100% with Nilaparvata lugens. In addition, the pest or weed control at 500 ppm in the test with Musca domestica [2] was in the range of 80 to 100%.

Regarding `COCc1ccc(C(COCc2cccc(Oc3ccccc3)c2)C(F)(F)F)cc1` (stereo not drawn) [Compound 24, 1,1,1-Trifluoro-2-(4-methoxymethylphenyl)-3-(3-phenoxybenzyloxy)propane], the mortality at 100 ppm in the test on Myzus persicae is 80 to 100%; in the test on Blattella germanica, 80 to 100%; with Musca domestica [1] it was 80 to 100%; with Diabrotica balteata it was 80 to 100%; in the test with Spodoptera exigua it was 70 to 100%; in the test on Heliothis virescens, 50 to 79%. Besides, the mortality at 100 ppm with Tetranychus urticae is less than 50%; in the test on Nilaparvata lugens, 80 to 100%. The pest or weed control at 100 ppm with Musca domestica [2] was 80 to 100%.

For the molecule `Fc1ccc(COCC(c2ccc(OC(F)(F)F)cc2)C(F)(F)F)cc1Oc1ccccc1` (stereo not drawn) [Compound 25, 1,1,1-Trifluoro-2-(4-trifluoromethoxyphenyl)-3-(3-phenoxy-4-fluorobenzyloxy)propane], the mortality at 100 ppm in the test with Myzus persicae was in the range of 80 to 100%; with Blattella germanica it was 80 to 100%; in the test with Musca domestica [1], 80 to 100%; with Diabrotica balteata, 80 to 100%; in the test on Spodoptera exigua, 70 to 100%; with Heliothis virescens, 80 to 100%. Moreover, the mortality at 100 ppm in the test on Tetranychus urticae and in the test on Nilaparvata lugens was 80 to 100% throughout. In the test on Musca domestica [2], the pest or weed control at 100 ppm was 80 to 100%.

As for `FC(F)(F)Oc1ccc(C(COCc2cccc(Oc3ccccc3)n2)C(F)(F)F)cc1` (stereo not drawn) [Compound 28, 1,1,1-Trifluoro-2-(4-trifluoromethoxyphenyl)-3-(6-phenoxy-2-pyridylmethyloxy)propane], the mortality at 100 ppm in the test on Myzus persicae was in the range of 80 to 100%; with Blattella germanica it was 80 to 100%; in the test on Musca domestica [1], 80 to 100%; with Diabrotica balteata, 80 to 100%; in the test with Spodoptera exigua, 70 to 100%; in the test on Heliothis virescens, 80 to 100%. Further, the mortality at 100 ppm is less than 50% with Tetranychus urticae and 80 to 100% in the test on Nilaparvata lugens. Moreover, in the test with Musca domestica [2], the pest or weed control at 100 ppm was in the range of 80 to 100%.
